# Measured values as given in PMC11876601 (Molecular Systems Biology, 2025).
# Where “and” joins values, the source holds several entries; their conditions need not be identical. Identical values can stand only once. Like-named read-outs stand apart in the source and are kept apart here.
# Columns and labels:
# [1] = system: CLK1; details: cited from earlier work
# [2] = system: FLT3; details: cited from earlier work
# [3] = system: CAMK2G; details: cited from earlier work
# [4] = system: ULK3; details: cited from earlier work
# [5] = system: PRKD3; details: cited from earlier work
# [6] = system: AAK1; details: cited from earlier work
# [7] = system: STK10; details: cited from earlier work
# [8] = system: BMP2K; details: cited from earlier work
# [9] = system: BxPC-3; assay: cells; design: ATPlite luminescence viability of PDAC cell lines, 11-dose single-agent curves, 4-parameter fit; details: Homo sapiens, BXPC-3, 72 h, read-out: EC50 [nM]
# In short: (§1)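 Drug-combination screening used cells plated at 1000 to 5000 per well one day before treatment. Final DMSO was 0.2%. Each plate held untreated negative-control wells and 5 µM staurosporine positive-control wells.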
# [10] = system: PaTu-8988-T; assay: cells; design: ATPlite luminescence viability of PDAC cell lines, 11-dose single-agent curves, 4-parameter fit; details: Homo sapiens, PaTu 8988t, 72 h, read-out: EC50 [nM]
# In short: as §1
# [11] = system: p-sites in Capan-1 cells; assay: Phosphoproteomics GEM + Elimusertib vs. GEM (non-decryptM); assay type: cell-based, human
# Description: (§2) Cell culture medium was replaced 24 h after seeding. […] For time point 0, AsPC-1 cells were treated with a vehicle and lysed immediately. The final DMSO concentration in all experiments was 0.2%.
# (§3) Oxidized methionine, N-terminal acetylation, and phosphorylation (STY) were set as variable modification, and cysteine carbamidomethylation was set as fixed modification. All other search parameters were kept as default, except for protein FDR which was set to 1. […] Potential contaminants and reversed hits were removed, and only peptides with unambiguously assigned phosphorylation sites with a localization probability of > 0.75 were retained. To acquire site-level quantification values, the corrected reporter ion intensities of peptides containing the same phosphosite(s) were summed up. Median centering of corrected TMT reporter channel intensities was performed. […] Channel 11 served as a vehicle for the chemodrug treatment and was not subjected to curve fitting. Instead, row-wise normalization was performed across all four TMT-batches using the medians of channels 10 and 11. […] Phosphoproteomic experiments in six additional cell lines (not dose-resolved) were median-centered within each TMT-batch, prior to row-wise normalization across all TMT-batches using a common channel filled with AsPC-1 lysate (Appendix Table S5). Two-sided t-test analysis and multiple hypothesis testing correction was performed in R using the same parameters and thresholds as described above.
# [12] = system: p-sites in Dan-G cells; assay: as above; assay type: cell-based, human
# Description: as §2, §3
# [13] = system: p-sites in MiaPaCa-2 cells; assay: as above; assay type: cell-based, human
# Description: as §2, §3
# [14] = system: p-sites in PANC-1 cells; assay: as above; assay type: cell-based, human
# Description: as §2, §3
# [15] = system: p-sites in PSN-1 cells; assay: as above; assay type: cell-based, human
# Description: as §2, §3
# [16] = system: p-sites in PaTu-8988-T cells; assay: as above; assay type: cell-based, human
# Description: as §2, §3
# [17] = target: GSK3A ; P49840 (Homo sapiens, UniProt P49840); assay: biochemical; design: species or system AsPC-1; Kinobeads competition pulldown in AsPC-1 lysate with LC-MS/MS label-free quantification; apparent Kd
# Description: This was followed by incubation with Kinobeads ε (17.5 µl of settled beads) for 30 min at 4 °C to enrich kinases. […] Enriched proteins were reduced with 50 mM DTT in 8 M urea, 40 mM Tris-HCl, pH 7.4 for 30 min at room temperature, and alkylated with 55 mM chloroacetamide. After reducing the urea concentration to 1–2 M, proteins were digested with trypsin at 37 °C for 16 h. Subsequently, eluted peptides were desalted using SepPak tC18 µElution plates (Waters), freeze-dried by vacuum centrifugation, and stored at −20 °C. Proteins were filtered by potential contaminants, reversed hits and proteins identified only by site. Residual binding of proteins was calculated from LFQ intensities as the ratio between drug doses and vehicle. […] Only kinases quantified with at least 4 unique peptides in the vehicle experiment were considered. Potential targets were further curated through manual inspection of dose-dependent reduction in MS/MS and unique peptide counts.
# [18] = system: AsPC-1; assay: cells; design: ATPlite luminescence viability of PDAC cell lines, 11-dose single-agent curves, 4-parameter fit; details: Homo sapiens, ASPC1, 72 h, read-out: EC50 [nM]
# In short: as §1
# [19] = 4 cell line mix lysate, Kinobeads y, ref Klaeger et al. (2017)
# [20] = CLK1, 5 cell line mix lysate, Kinobeads ε, ref Reinecke et al. (2023)
# [21] = FLT3, 5 cell line mix lysate, Kinobeads ε, ref Reinecke et al. (2023)
# [22] = 5 cell line mix lysate, Kinobeads ε, ref Reinecke et al. (2023), read-out: KDapp
# [23] = 5 cell line mix lysate, Kinobeads ε, ref Reinecke et al. (2023)
# [24] = ULK3, 5 cell line mix lysate, Kinobeads ε, ref Reinecke et al. (2023)
# [25] = PRKD3, 5 cell line mix lysate, Kinobeads ε, ref Reinecke et al. (2023)
# [26] = AAK1, 5 cell line mix lysate, Kinobeads ε, ref Reinecke et al. (2023)
# [27] = STK10, 5 cell line mix lysate, Kinobeads ε, ref Reinecke et al. (2023)
# Chain of GSK3A ; P49840 (P49840 whole entry): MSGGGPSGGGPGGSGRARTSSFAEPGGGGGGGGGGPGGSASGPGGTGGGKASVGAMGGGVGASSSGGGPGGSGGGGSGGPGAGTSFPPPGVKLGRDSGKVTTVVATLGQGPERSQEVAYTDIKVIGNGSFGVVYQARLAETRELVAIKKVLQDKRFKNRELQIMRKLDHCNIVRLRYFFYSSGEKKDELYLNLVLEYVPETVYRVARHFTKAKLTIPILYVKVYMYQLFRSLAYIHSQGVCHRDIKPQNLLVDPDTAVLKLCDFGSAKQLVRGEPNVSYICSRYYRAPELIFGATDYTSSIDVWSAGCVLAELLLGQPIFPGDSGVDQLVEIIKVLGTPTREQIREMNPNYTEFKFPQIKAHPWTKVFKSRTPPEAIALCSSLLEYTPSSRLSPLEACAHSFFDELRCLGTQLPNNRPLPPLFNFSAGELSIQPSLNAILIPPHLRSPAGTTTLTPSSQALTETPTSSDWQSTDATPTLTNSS
smiles,measurement,setting,value
C[C@]12O[C@H](C[C@]1(O)CO)n1c3ccccc3c3c4c(c5c6ccccc6n2c5c31)CNC4=O [Lestaurtinib],EC50,"[1]; CLK1, 4 cell line mix lysate, Kinobeads y, ref Klaeger et al. (2017)",[…]
same,EC50,[8]; [19],323 nM
same,EC50,[9],432 nM
same,EC50,[10],407 nM
C[C@@H]1COCCN1c1cc(-c2ccnn2C)c2ccnc(-c3ccn[nH]3)c2n1 [Elimusertib],Mean log2 PTM response (GEM+Elimusertib vs. GEM),[11],-1.06
same,Mean log2 PTM response (GEM+Elimusertib vs. GEM),[12],-1.06 and -1.18 and -1.05
same,Mean log2 PTM response (GEM+Elimusertib vs. GEM),[13],-1.06
same,Mean log2 PTM response (GEM+Elimusertib vs. GEM),[14],-1.13
same,Mean log2 PTM response (GEM+Elimusertib vs. GEM),[15],-1.04 and -1.16
same,Mean log2 PTM response (GEM+Elimusertib vs. GEM),[16],-1.04
CNCc1ccc(-c2cc(-c3nc(-c4ccc(S(=O)(=O)C(C)C)cc4)cnc3N)on2)cc1 [Berzosertib],Kd,[17],39.7 nM
Nc1nn2cc(F)cnc2c1C(=O)Nc1cncc(F)c1N1CCC(C(=O)N2CCN(C3COC3)CC2)CC1 [Gartisertib],Kd,[17],0.719 nM
COc1cc(N2CCC(N3CCN(C)CC3)CC2)ccc1Nc1ncc(Cl)c(Nc2ccccc2P(C)(C)=O)n1 [Brigatinib],EC50,[1]; [20],13.1 nM
same,pKDapp,[1]; [20],8.03
same,Kd,"[1]; CLK1, 5 cell line mix lysate, Kinobeads ε, ref Reinecke et al. (2023), read-out: KDapp",9.35 nM
same,EC50,[2]; [21],142 nM
same,pKDapp,[2]; [21],7.12
same,Kd,"[2]; FLT3, 5 cell line mix lysate, Kinobeads ε, ref Reinecke et al. (2023), read-out: KDapp",76.3 nM
same,Kd,[3]; [22],93.2 nM
same,EC50,[3]; [23],429 nM
same,pKDapp,[3]; [23],7.03
same,EC50,[4]; [24],306 nM
same,pKDapp,[4]; [24],6.86
same,Kd,"[4]; ULK3, 5 cell line mix lysate, Kinobeads ε, ref Reinecke et al. (2023), read-out: KDapp",139 nM
same,EC50,[5]; [25],259 nM
same,pKDapp,[5]; [25],6.72
same,Kd,"[5]; PRKD3, 5 cell line mix lysate, Kinobeads ε, ref Reinecke et al. (2023), read-out: KDapp",192 nM
same,EC50,[6]; [26],328 nM
same,pKDapp,[6]; [26],6.66
same,Kd,"[6]; AAK1, 5 cell line mix lysate, Kinobeads ε, ref Reinecke et al. (2023), read-out: KDapp",220 nM
same,EC50,[7]; [27],310 nM
same,pKDapp,[7]; [27],6.55
same,Kd,"[7]; STK10, 5 cell line mix lysate, Kinobeads ε, ref Reinecke et al. (2023), read-out: KDapp",283 nM
same,Kd,[8]; [22],999 nM
same,EC50,[8]; [23],1510 nM
same,pKDapp,[8]; [23],6.00
same,EC50,[18],272 nM
CCN1CCN(Cc2ccc(Nc3ncc(F)c(-c4cc(F)c5nc(C)n(C(C)C)c5c4)n3)nc2)CC1 [Abemaciclib],EC50,[18],> 10000 nM
same,EC50,[9],337 nM
same,EC50,[10],2850 nM
"Nc1ccn([C@@H]2O[C@H](CO)[C@@H](O)C2(F)F)c(=O)n1 [GEM, Gemcitabine]",Mean log2 TMT reporter ion intensity,"[11]; source data 5F (p-site not named), CAPAN1",20.29
same,Mean log2 TMT reporter ion intensity,"[12]; source data 5F (p-site not named), DANG",20.35
same,Mean log2 TMT reporter ion intensity,"[13]; source data 5F (p-site not named), MIAPACA2",18.24
same,Mean log2 TMT reporter ion intensity,"[14]; source data 5F (p-site not named), PANC1",18.30
same,Mean log2 TMT reporter ion intensity,"[15]; source data 5F (p-site not named), PSN1",19.41
same,Mean log2 TMT reporter ion intensity,"[16]; source data 5F (p-site not named), PATU8988T",19.97
